Drawing on ChEMBL document CHEMBL1149802, “Chemiluminescent high-throughput microassay applied to imidazo[2,1-b]thiazole derivatives as potential acetylcholinesterase and butyrylcholinesterase inhibitors” (Eur J Med Chem, 2008), this text covers IC50 for three compounds.

The target in this test is Acetylcholinesterase (Electrophorus electricus, UniProt O42275). In words: Inhibition of electric eel acetylcholine esterase type V-S in presence of acetylcholine substrate by chemiluminescent assay.
Chain of Acetylcholinesterase (O42275 whole entry): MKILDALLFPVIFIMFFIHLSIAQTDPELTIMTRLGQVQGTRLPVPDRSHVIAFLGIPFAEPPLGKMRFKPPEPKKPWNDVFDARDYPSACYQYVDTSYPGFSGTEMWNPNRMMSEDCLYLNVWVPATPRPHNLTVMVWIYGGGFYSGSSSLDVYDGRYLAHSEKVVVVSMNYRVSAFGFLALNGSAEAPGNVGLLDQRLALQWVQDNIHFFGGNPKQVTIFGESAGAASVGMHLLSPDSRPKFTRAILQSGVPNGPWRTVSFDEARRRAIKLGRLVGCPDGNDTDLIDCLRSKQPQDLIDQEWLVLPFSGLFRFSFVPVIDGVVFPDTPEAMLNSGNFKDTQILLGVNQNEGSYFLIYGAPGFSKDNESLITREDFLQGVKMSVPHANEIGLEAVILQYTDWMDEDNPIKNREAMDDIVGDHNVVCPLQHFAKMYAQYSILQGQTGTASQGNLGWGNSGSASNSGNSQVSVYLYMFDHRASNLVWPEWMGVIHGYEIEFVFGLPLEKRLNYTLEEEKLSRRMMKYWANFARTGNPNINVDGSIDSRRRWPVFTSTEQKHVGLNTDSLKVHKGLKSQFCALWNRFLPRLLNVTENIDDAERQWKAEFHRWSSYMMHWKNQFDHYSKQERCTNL

In general, IC50 refers to the concentration that inhibits the measured activity by half. Turning to `CC(=O)N1CCN(/N=C/c2c(C)nc3sccn23)C1=O`, the concentration for half-maximal inhibition (IC50) stood at 35 µM.

`CC(=O)N1CCN(/N=C/c2c(Cl)nc3sccn23)C1=O`: the IC50 came out at 60 µM.

For the compound `O=C(c1ccccc1)N1CCN(/N=C/c2c(Cl)nc3sccn23)C1=O`, the IC50 was found to be 4.2 µM.
